Laboratory results reported in patent US12448366B2, “Solid forms of pralsetinib” (Rigel Pharmaceuticals, Inc., priority 2020, dated 2025).
“Also recorded” adds a separate entry of the source.

What was measured:
Assay type in all cases: physicochemical
[1] = Thermal treatment in DSC followed by XRPD (Example 2G); conditions: 150° C.
Source text: Select solids were used for thermal treatment in DSC. Solids were heated to specified temperature and then cooled back to room temperature for analysis by XRPD.

[2] = Competitive slurry experiments between free base solid forms
[3] = Evaporative crystallization (Example 2B), XRPD; conditions: evaporative crystallization at 50° C., to be confirmed by other analytical methods
Method: Supernatant from some slurries was recovered for evaporative crystallization. The solutions were evaporated to dryness at 50° C. in atmospheric pressure and then placed at 50° C. under vacuum for 1.5 hours. […] It is possible that these solids were solvates with structures that collapsed to amorphous solids upon drying. Where two experiment numbers are indicated, evaporation was at different concentration.

[4] = Cooling crystallization (Example 2C), XRPD; conditions: for XRPD Pattern (fast cool): crash cooling from 50° C. to 0° C.; for XRPD Pattern (slow cool): from 50° C. at 5° C. per hour
Method: Cooling crystallization was done in a range of solvent systems. Two cooling regimes were used: cooling from 50° C. at 5° C. per hour, and crash cooling from 50° C. to 0° C. In all experiments, solids were completely dissolved before cooling. […] Cooling in THF gave two low crystallinity solids, Solid form N (fast cooling), and solid form I (slow cooling).

[5] = Short term slurries (Example 2A), XRPD; conditions: short term slurry, starting solids Pattern C
Method: Short term slurries were carried out at two temperature in 15 solvents during the initial screening. Starting solids were Pattern C. Most solids were Pattern C after slurrying. Solids converted to Pattern A in EtOH, IPA, acetone, and acetonitrile at both temperatures.
The upper phase was sticky and when filtered yielded a low amount of a solid form characterized by XRPD Pattern H.

[6] = Antisolvent crystallization (Example 2D), XRPD; conditions: for XRPD results of direct antisolvent experiments: direct addition; for XRPD results of reverse antisolvent experiments: reverse addition
Method: Antisolvent crystallization was done in various solvent systems. First, about 30 mg solid free base of Compound (I) characterized by XRPD Pattern C (solid form C) was dissolved in solvent. Then antisolvent crystallization was done either using the direct or reverse addition method. For direct addition, antisolvent was added dropwise to the solution until a slurry was formed. For reverse addition, solution was added all at once to the antisolvent. The volume of antisolvent used was 4 times the volume of solvent required to dissolve the solid. For example, if 0.15 mL solvent was required to dissolve the solid then the solution was added at once to […] antisolvent. Once solids were formed, the slurries were filtered and solids were recovered for XRPD analysis.

[7] = Drying of free base solid forms (XRPD); conditions: 50° C., (under vacuum where stated)
[8] = Dynamic vapor sorption (DVS); conditions: for XRPD / form stability after DVS humidity cycling: XRPD before and after DVS
[9] = Humidity exposure, 75% relative humidity at 40° C. for one week, XRPD; conditions: one week / 7 days, XRPD
[10] = cooling crystallization, ACN water (8:2 vol)
[11] = cooling crystallization, DMAc:ACN (2:8 vol)
[12] = cooling crystallization, DMAc:IPA (2:8 vol)
[13] = cooling crystallization, DMSO:ACN (2:8 vol)
[14] = cooling crystallization, DMSO:IPA (2:8 vol)
[15] = cooling crystallization, MeOH chloroform (1.88:1 vol), wet solid before drying
[16] = solvent DMAc, antisolvent cyclohexane
[17] = solvent DMAc, antisolvent water

**Q.** For CO[C@]1(C(=O)N[C@@H](C)c2ccc(-n3cc(F)cn3)nc2)CC[C@H](c2nc(C)cc(Nc3cc(C)[nH]n3)n2)CC1 [Solid Form C, pralsetinib], which “solid form after heating to 150° C.” value [1] is on record?
**A.** The value was “converted to Pattern B (anhydrous); also recorded: converted to solid form B”.

**Q.** What about the “competitive slurry in acetone and isopropanol” value [2] of the same compound?
**A.** The value was “converted to solid form A”.

**Q.** What about the “Competitive slurry MeOH: water (1:1 vol) at 23 and 50° C.” value ([2]; listed as Pattern C) of the same compound?
**A.** The value was “C stable”.

**Q.** What about the “Competitive slurry isopropanol, MeOH:MtBE” value ([2]; listed as Pattern C) of the same compound?
**A.** Its value is “C converts to A”.

**Q.** What about the “XRPD Pattern” value ([3]; DCM, solution 37 mg/mL solvent) of the same compound?
**A.** The value was “amorphous*”.

**Q.** And the “XRPD Pattern” value ([3]; chloroform, solution 70 mg/mL solvent)?
**A.** Its value is “amorphous*”.

**Q.** What about the “XRPD Pattern (fast cool)” value ([4]; cooling crystallization, 1,4-dioxane) of the same compound?
**A.** Its value is “no solids (−20° C.)”.

**Q.** What about the “XRPD Pattern (slow cool)” value ([4]; cooling crystallization, 1,4-dioxane, wet solid before drying) of the same compound?
**A.** Its value is “Q (wet)”.

**Q.** And the “XRPD Pattern (fast cool)” value ([4]; cooling crystallization, 1-propanol)?
**A.** Its value is “no solids (−20° C.)”.

**Q.** And the “XRPD Pattern (slow cool)” value ([4]; cooling crystallization, 1-propanol, wet solid before drying)?
**A.** Its value is “A (wet)”.

**Q.** And the “XRPD Pattern (fast cool)” value [4, 10]?
**A.** The value was “no solids (−20° C.)”.

**Q.** And the “XRPD Pattern (slow cool)” value [4, 10]?
**A.** Its value is “no solids (−20° C.)”.

**Q.** And the “XRPD Pattern (fast cool)” value [4, 11]?
**A.** The value was “no solids (−20° C.)”.

**Q.** What about the “XRPD Pattern (slow cool)” value [4, 11] of the same compound?
**A.** The value was “no solids (−20° C.)”.

**Q.** What about the “XRPD Pattern (fast cool)” value [4, 12] of the same compound?
**A.** Its value is “no solids (−20° C.)”.

**Q.** And the “XRPD Pattern (slow cool)” value [4, 12]?
**A.** The value was “no solids (−20° C.)”.

**Q.** And the “XRPD Pattern (fast cool)” value [4, 13]?
**A.** Its value is “no solids (−20° C.)”.

**Q.** And the “XRPD Pattern (slow cool)” value [4, 13]?
**A.** The value was “no solids (−20° C.)”.

**Q.** And the “XRPD Pattern (fast cool)” value [4, 14]?
**A.** The value was “no solids (−20° C.)”.

**Q.** What about the “XRPD Pattern (slow cool)” value [4, 14] of the same compound?
**A.** The value was “no solids (−20° C.)”.

**Q.** And the “XRPD Pattern (fast cool)” value ([4]; cooling crystallization, EtOAc)?
**A.** The value was “no solids (−20° C.)”.

**Q.** And the “XRPD Pattern (slow cool)” value ([4]; cooling crystallization, EtOAc)?
**A.** The value was “very few solids”.

**Q.** And the “XRPD Pattern (fast cool)” value ([4]; cooling crystallization, EtOH)?
**A.** The value was “no solids (−20° C.)”.

**Q.** What about the “XRPD Pattern (slow cool)” value ([4]; cooling crystallization, EtOH) of the same compound?
**A.** Its value is “no solids (−20° C.)”.

**Q.** And the “XRPD Pattern (fast cool)” value ([4]; cooling crystallization, IPA)?
**A.** Its value is “no solids (−20° C.)”.

**Q.** What about the “XRPD Pattern (slow cool)” value ([4]; cooling crystallization, IPA) of the same compound?
**A.** The value was “A (wet)”.

**Q.** And the “XRPD Pattern (fast cool)” value ([4]; cooling crystallization, IPAc)?
**A.** Its value is “no solids (−20° C.)”.

**Q.** And the “XRPD Pattern (slow cool)” value ([4]; cooling crystallization, IPAc)?
**A.** The value was “no solids (−20° C.)”.

**Q.** And the “XRPD Pattern (fast cool)” value [4, 15]?
**A.** Its value is “D (wet)”.

**Q.** What about the “XRPD Pattern (slow cool)” value [4, 15] of the same compound?
**A.** The value was “D (wet)”.

**Q.** What about the “XRPD Pattern (slow cool)” value ([4]; cooling crystallization, MeOH) of the same compound?
**A.** Its value is “no solids (−20° C.)”.

**Q.** And the “XRPD Pattern (fast cool)” value ([4]; cooling crystallization, THF)?
**A.** Its value is “N (wet)”.

**Q.** What about the “XRPD Pattern (slow cool)” value ([4]; cooling crystallization, THF, wet solid before drying) of the same compound?
**A.** The value was “O + I (wet)”.

**Q.** And the “XRPD Pattern (fast cool)” value ([4]; cooling crystallization, acetone)?
**A.** The value was “no solids (−20° C.)”.

**Q.** And the “XRPD Pattern” value ([5]; EtOH, 22-23° C., dried solids)?
**A.** The value was “A (dry)”.

**Q.** And the “XRPD Pattern” value ([5]; EtOH, 22-23° C., wet solids)?
**A.** The value was “A (wet)”.

**Q.** What about the “XRPD Pattern” value ([5]; IPAc, 50° C.) of the same compound?
**A.** The value was “A + C”.

**Q.** What about the “XRPD Pattern” value ([5]; chloroform, 22-23° C., dried solids) of the same compound?
**A.** Its value is “H (dry)”.

**Q.** What about the “XRPD Pattern” value ([5]; chloroform, 22-23° C., wet solids) of the same compound?
**A.** Its value is “H (wet)”.

**Q.** What about the “XRPD results of direct antisolvent experiments” value [6, 16] of the same compound?
**A.** The value was “phase sep”.

**Q.** And the “XRPD results of direct antisolvent experiments” value [6, 17]?
**A.** The value was “C + some B (wet)”.

**Q.** What about the “XRPD results of direct antisolvent experiments” value ([6]; solvent THF, antisolvent water) of the same compound?
**A.** The value was “oiling”.

**Q.** What about the “XRPD results of reverse antisolvent experiments” value [6, 16] of the same compound?
**A.** The value was “phase sep”.

**Q.** And the “XRPD results of reverse antisolvent experiments” value [6, 17]?
**A.** Its value is “C (wet)”.

**Q.** And the “XRPD results of reverse antisolvent experiments” value ([6]; solvent MeOH, antisolvent water)?
**A.** Its value is “C (wet)”.

**Q.** And the “XRPD results of reverse antisolvent experiments” value ([6]; solvent THF, antisolvent heptane)?
**A.** The value was “am. (wet)”.

**Q.** And the “XRPD results of reverse antisolvent experiments” value ([6]; solvent THF, antisolvent water)?
**A.** Its value is “C (wet)”.

**Q.** What about the “behaviour upon drying at 50° C.” value [7] of the same compound?
**A.** The value was “converted to a dehydrate, Solid Form B”.

**Q.** And the “behaviour upon drying at 50° C.” value ([7]; listed as Pattern C)?
**A.** Its value is “pattern B”.

**Q.** What about the “behaviour upon drying at 50° C.” value ([7]; listed as solid form C) of the same compound?
**A.** Its value is “stable”.

**Q.** What about the “water gained during the dynamic vapor sorption measurements” value [8] of the same compound?
**A.** Its value is 1.44%.

**Q.** And the “hygroscopicity (words)” value ([8]; DVS)?
**A.** Its value is “not as hygroscopic as pralsetinib free base in solid form A”.

**Q.** And the “DVS Water Mass Change (wt. %)” value ([8]; Table 3E)?
**A.** The value was 1.29-1.44 wt. %.

**Q.** And the “XRPD / form stability after DVS humidity cycling” value [8]?
**A.** The value was “the same”.

**Q.** What about the “XRPD / form stability after DVS humidity cycling” value ([8]; listed as Solid form C) of the same compound?
**A.** Its value is “remained stable”.

**Q.** What about the “reversible mass change by DVS” value ([8]; between 2-95% relative humidity) of the same compound?
**A.** Its value is “about 1.4%”.

**Q.** And the “total mass change observed by DVS” value ([8]; humidity range not given)?
**A.** Its value is 1.4 wt. %.

**Q.** And the “stability on exposure to 75% relative humidity at 40° C.” value [9]?
**A.** The value was “remained stable”.

**Q.** What about the “stability on exposure to 75% relative humidity at 40° C.” value ([9]; listed as Pattern C) of the same compound?
**A.** The value was “remained unchanged”.
